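Cultured in 96-well plates, cells were exposed to test compound for 48 hours across five concentrations. TGI: total growth inhibition.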
Experiments:
Test in all cases: NCI anticancer screen, dose series, 48 h
[1] = tested on: 786-0 renal
[2] = tested on: ACHN renal
[3] = tested on: COLO 205 colon
[4] = tested on: HCT-15 colon
[5] = tested on: HOP-92 NSCLC
[6] = tested on: HT29 colon
[7] = tested on: NCI-H522 lung
[8] = tested on: NCI/ADR-RES ovarian
[9] = tested on: SK-MEL-28 melanoma
[10] = tested on: SK-MEL-5 melanoma
[11] = tested on: LOX IMVI melanoma
[12] = tested on: NCI-H226 lung

Cc1cn(Cc2ccccc2CCl)c(=O)[nH]c1=O
TGI [1]: 30.2 µM
TGI [2]: 27.1 µM
TGI [3]: 45.7 µM
TGI [4]: 31.7 µM
TGI [5]: > 100 µM
TGI [6]: 79.7 µM
TGI [7]: 23.9 µM
TGI [8]: 36.2 µM
TGI [9]: 45.5 µM
TGI [10]: 20.7 µM

CCCCOC(=O)C(O)Cc1ccoc1 (stereo unspecified)
TGI [1]: > 100 µM
TGI [2]: > 100 µM
TGI [3]: > 100 µM
TGI [4]: > 100 µM
TGI [6]: > 100 µM
TGI [11]: > 100 µM
TGI [12]: > 100 µM
TGI [7]: > 100 µM
TGI [8]: > 100 µM
TGI [9]: > 100 µM
TGI [10]: > 100 µM

COC(=O)c1c(C)cccc1/C=C1\Cc2cc(C)cc(C)c2C1=O
TGI [1]: > 100 µM
TGI [2]: > 100 µM
TGI [4]: > 100 µM
TGI [5]: 39.4 µM
TGI [6]: > 100 µM
TGI [11]: > 100 µM
TGI [12]: > 100 µM
TGI [7]: > 100 µM
TGI [9]: > 100 µM
TGI [10]: > 100 µM

CC[C@H]1OC([C@H](O)C/C=C\C#C[Si](C)(C)C)C/C=C\C[C@H]1O[Si](C)(C)C(C)(C)C (stereo partly specified)
TGI [1]: > 100 µM
TGI [2]: > 100 µM
TGI [3]: > 100 µM
TGI [4]: > 100 µM
TGI [6]: > 100 µM
TGI [11]: 36.3 µM
TGI [12]: > 100 µM
TGI [7]: > 100 µM
TGI [8]: > 100 µM
TGI [9]: > 100 µM
TGI [10]: > 100 µM

N/C(=N/n1c(=S)[nH]c2ccccc2c1=O)Nn1c(=S)[nH]c2ccccc2c1=O
TGI [1]: 34.2 µM
TGI [2]: > 100 µM
TGI [3]: 77.6 µM
TGI [4]: 55.5 µM
TGI [11]: 46 µM
TGI [12]: 79 µM
TGI [7]: 30 µM
TGI [8]: > 100 µM
TGI [9]: 72.6 µM
TGI [10]: > 100 µM

CC1(C)Oc2ccc3c(=O)cc(-c4ccc(F)cc4)oc3c2C1C(=O)O (stereo unspecified)
TGI [1]: > 100 µM
TGI [3]: > 100 µM
TGI [6]: > 100 µM
TGI [12]: > 100 µM
TGI [7]: > 100 µM
TGI [8]: > 100 µM
TGI [10]: > 100 µM

C[C@H](O)C1CC(Cn2nnc3c(N)ncnc32)C1(C)C (stereo partly specified)
TGI [1]: > 100 µM
TGI [2]: > 100 µM
TGI [4]: > 100 µM
TGI [5]: > 100 µM
TGI [11]: > 100 µM
TGI [12]: > 100 µM
TGI [8]: > 100 µM
TGI [9]: > 100 µM
TGI [10]: > 100 µM

CC(C)C1OC(=O)/C=C/C=C/C=C/C=C/C=C/CC(O)CC(O)CC(O)CC(O)CC(O)CC(O)CC(O)CC(O)/C=C/C1C (stereo unspecified)
TGI [1]: > 100 µM
TGI [2]: > 100 µM
TGI [3]: > 100 µM
TGI [4]: > 100 µM
TGI [5]: > 100 µM
TGI [6]: > 100 µM
TGI [11]: > 100 µM
TGI [12]: > 100 µM
TGI [8]: > 100 µM
TGI [9]: > 100 µM
TGI [10]: > 100 µM

COc1cc2c(c(OC)c1OC)-c1ccc(SC)cc1[C@H](OC(=O)c1ccccc1)CC2
TGI [1]: > 100 µM
TGI [2]: > 100 µM
TGI [3]: 0.446 µM
TGI [4]: > 40.6 µM
TGI [5]: > 100 µM
TGI [11]: > 100 µM
TGI [12]: 0.634 µM
TGI [9]: > 100 µM
TGI [10]: 1.21 µM

CC1(C)CC(=O)c2c(nc3ccc4ccccc4c3c2-c2ccc(NC(=O)CCC(=O)Nc3ccc(-c4c5c(nc6ccc7ccccc7c46)CC(C)(C)CC5=O)cc3)cc2)C1
TGI [1]: > 100 µM
TGI [2]: > 100 µM
TGI [3]: > 100 µM
TGI [6]: > 100 µM
TGI [11]: > 100 µM
TGI [12]: > 100 µM
TGI [7]: > 100 µM
TGI [8]: > 100 µM
TGI [9]: > 100 µM
TGI [10]: > 100 µM

NC(=O)N1N=C2c3ccccc3SC[C@H]2[C@@H]1c1ccccc1
TGI [1]: > 100 µM
TGI [2]: > 100 µM
TGI [3]: 43.4 µM
TGI [4]: > 100 µM
TGI [6]: 38 µM
TGI [11]: 32.4 µM
TGI [12]: 53.2 µM
TGI [9]: 52.1 µM
TGI [10]: 21.8 µM

Cn1c(-c2cccs2)cc(-c2cccs2)c1-c1ccsc1
TGI [1]: > 100 µM
TGI [2]: > 100 µM
TGI [3]: > 100 µM
TGI [4]: > 100 µM
TGI [5]: > 100 µM
TGI [6]: > 100 µM
TGI [11]: > 100 µM
TGI [12]: > 100 µM
TGI [8]: > 100 µM
TGI [9]: > 100 µM
TGI [10]: > 100 µM

COc1ccc(CC2NC(=O)/C=C/CC(C(C)C3OC3c3ccccc3)OC(=O)C(CC(C)C)OC(=O)C(C)CNC2=O)cc1Cl (stereo unspecified)
TGI [1]: > 0.1 µM
TGI [2]: > 0.1 µM
TGI [3]: 2.12e-05 µM
TGI [4]: > 0.1 µM
TGI [5]: > 0.1 µM
TGI [6]: 0.000108 µM
TGI [11]: > 0.1 µM
TGI [12]: 0.000127 µM
TGI [7]: > 0.1 µM
TGI [9]: > 0.1 µM
TGI [10]: 0.000657 µM

Cc1cc2c(c(C=NCc3ccccc3)c1)OC1(C=C2)Oc2ccccc2C(=O)N1C (stereo unspecified)
TGI [1]: > 100 µM
TGI [2]: 69.7 µM
TGI [3]: 39.8 µM
TGI [4]: 45.4 µM
TGI [5]: 43 µM
TGI [6]: 51.7 µM
TGI [11]: 34.5 µM
TGI [12]: 42.9 µM
TGI [8]: 48 µM
TGI [9]: > 100 µM
TGI [10]: 50.3 µM

O=c1[nH]nc(Cc2ccccc2)n1Nc1ccccc1
TGI [1]: > 100 µM
TGI [2]: > 100 µM
TGI [3]: > 100 µM
TGI [4]: > 100 µM
TGI [6]: > 100 µM
TGI [11]: > 100 µM
TGI [12]: > 100 µM
TGI [7]: > 100 µM
TGI [8]: > 100 µM
TGI [9]: > 100 µM
TGI [10]: > 100 µM

COC(=O)/C=c1/c2ccccc2n2nc3ccccc3c12
TGI [1]: > 100 µM
TGI [2]: > 100 µM
TGI [3]: > 100 µM
TGI [4]: > 100 µM
TGI [6]: > 100 µM
TGI [11]: > 100 µM
TGI [7]: > 100 µM
TGI [8]: > 100 µM
TGI [9]: > 100 µM
TGI [10]: > 100 µM

Reference: PubChem BioAssay (NCI)
